Data published in ChEMBL document CHEMBL1201862, “PubChem BioAssay data set” (2004).
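Five concentrations, 48 hours, 96-well plates. The concentration for 50% growth inhibition is given as GI50.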 Calls of active or inactive are those of the source. No stated cut-off is given here; in the data, active = GI50 up to about 1.1 µM and inactive = higher.

What was measured:
Assay in all cases: growth of human tumour cells (NCI), 48 h
KM12 = tested on: KM12
SK-MEL-5 = tested on: SK-MEL-5
HOP-92 = tested on: HOP-92
SK-MEL-28 = tested on: SK-MEL-28
OVCAR-8 = tested on: OVCAR-8
A549 = tested on: A549
Malme-3M = tested on: Malme-3M
HCT-15 = tested on: HCT-15
SNB-75 = tested on: SNB-75
MOLT-4 = tested on: MOLT-4
NCI-H226 = tested on: NCI-H226
NCI-H23 = tested on: NCI-H23
IGROV-1 = tested on: IGROV-1
A498 = tested on: A498
HCC 2998 = tested on: HCC 2998
RXF 393 = tested on: RXF 393

## CC1(CO)OC(n2cc(C(=O)NC(=O)OCc3ccccc3)c(=O)[nH]c2=O)CC1O (configuration not stated)
KM12
  GI50: > 100 µM (inactive)
SK-MEL-5
  GI50: > 100 µM (inactive)
HOP-92
  GI50: > 100 µM (inactive)
SK-MEL-28
  GI50: > 100 µM (inactive)
OVCAR-8
  GI50: > 100 µM (inactive)
A549
  GI50: > 100 µM (inactive)
Malme-3M
  GI50: > 100 µM (inactive)
HCT-15
  GI50: > 100 µM
SNB-75
  GI50: 84.5 µM (inactive)
MOLT-4
  GI50: > 100 µM (inactive)
NCI-H226
  GI50: > 100 µM (inactive)
NCI-H23
  GI50: > 100 µM (inactive)
IGROV-1
  GI50: > 100 µM (inactive)
A498
  GI50: > 100 µM (inactive)

## O=S(=O)(c1cccc(N=C=S)c1)c1cccc(N=C=S)c1
KM12
  GI50: 27.5 µM (inactive)
SK-MEL-5
  GI50: 19.7 µM (inactive)
SK-MEL-28
  GI50: 18.2 µM (inactive)
OVCAR-8
  GI50: > 10 µM (inactive)
A549
  GI50: > 100 µM (inactive)
Malme-3M
  GI50: 18.9 µM (inactive)
HCT-15
  GI50: 18.3 µM
MOLT-4
  GI50: 4.85 µM (inactive)
NCI-H23
  GI50: 17.1 µM (inactive)
IGROV-1
  GI50: 18.7 µM (inactive)
HCC 2998
  GI50: 21.8 µM (inactive)
RXF 393
  GI50: 8.11 µM (inactive)

## CC1=C(C(=O)Nc2ccccc2C)C(c2ccc(N(C)C)cc2)C(C(=O)Nc2ccccc2C)=C(C)N1
KM12
  GI50: 48.4 µM (inactive)
SK-MEL-5
  GI50: 38.5 µM (inactive)
SK-MEL-28
  GI50: 74.8 µM (inactive)
OVCAR-8
  GI50: 88.5 µM (inactive)
A549
  GI50: 94 µM (inactive)
Malme-3M
  GI50: 82.6 µM (inactive)
HCT-15
  GI50: 67.9 µM
MOLT-4
  GI50: 26.8 µM (inactive)
NCI-H226
  GI50: > 100 µM (inactive)
NCI-H23
  GI50: 58.7 µM (inactive)
IGROV-1
  GI50: > 100 µM (inactive)
HCC 2998
  GI50: 34.5 µM (inactive)
RXF 393
  GI50: 35.5 µM (inactive)
A498
  GI50: > 100 µM (inactive)

## COc1ccc2c3c([nH]c2c1[N+](=O)[O-])C(C)N(C(=O)/C=C/c1ccccc1)CC3 (configuration not stated)
KM12
  GI50: 4.24 µM (inactive)
SK-MEL-28
  GI50: 5.14 µM (inactive)
OVCAR-8
  GI50: 3.91 µM (inactive)
A549
  GI50: 14.3 µM (inactive)
HCT-15
  GI50: 5.71 µM
MOLT-4
  GI50: 2.64 µM (inactive)
NCI-H226
  GI50: 10.9 µM (inactive)
NCI-H23
  GI50: 25.5 µM (inactive)
IGROV-1
  GI50: > 100 µM (inactive)
HCC 2998
  GI50: 21.5 µM (inactive)
RXF 393
  GI50: 3.27 µM (inactive)
A498
  GI50: 2.62 µM (inactive)

## CN(C)c1ccc2c(c1)C(=O)N(OS(=O)(=O)c1ccc([N+](=O)[O-])cc1)C2=O
KM12
  GI50: 25.1 µM (inactive)
SK-MEL-5
  GI50: 41.1 µM (inactive)
HOP-92
  GI50: > 10 µM (inactive)
SK-MEL-28
  GI50: 26.1 µM (inactive)
OVCAR-8
  GI50: 25.5 µM (inactive)
A549
  GI50: 39.2 µM (inactive)
Malme-3M
  GI50: 31.2 µM (inactive)
HCT-15
  GI50: 33.2 µM
SNB-75
  GI50: 31.6 µM (inactive)
NCI-H226
  GI50: 72.8 µM (inactive)
NCI-H23
  GI50: 26.2 µM (inactive)
IGROV-1
  GI50: 19.7 µM (inactive)
HCC 2998
  GI50: 24.6 µM (inactive)
RXF 393
  GI50: 13.9 µM (inactive)
A498
  GI50: 59.7 µM (inactive)

## COc1ccccc1NC(=O)C1=C(C)NC(C)=C(C(=O)Nc2ccccc2OC)C1c1ccccc1[N+](=O)[O-]
KM12
  GI50: 16.8 µM (inactive)
SK-MEL-5
  GI50: 24.8 µM (inactive)
HOP-92
  GI50: 25.6 µM (inactive)
SK-MEL-28
  GI50: 17.5 µM (inactive)
OVCAR-8
  GI50: 19.2 µM (inactive)
A549
  GI50: > 100 µM (inactive)
Malme-3M
  GI50: 13.9 µM (inactive)
HCT-15
  GI50: 14.3 µM
SNB-75
  GI50: 42.1 µM (inactive)
MOLT-4
  GI50: 14.3 µM (inactive)
NCI-H226
  GI50: 15.2 µM (inactive)
NCI-H23
  GI50: 16.8 µM (inactive)
IGROV-1
  GI50: 19.7 µM (inactive)
HCC 2998
  GI50: 18.7 µM (inactive)
RXF 393
  GI50: > 100 µM (inactive)

## Nc1nc(N)c(-c2ccccc2)c(C(=O)Nc2ccccc2)n1
KM12
  GI50: > 100 µM (inactive)
SK-MEL-5
  GI50: > 100 µM (inactive)
HOP-92
  GI50: > 100 µM (inactive)
SK-MEL-28
  GI50: > 100 µM (inactive)
OVCAR-8
  GI50: > 100 µM (inactive)
A549
  GI50: > 100 µM (inactive)
Malme-3M
  GI50: > 100 µM (inactive)
HCT-15
  GI50: > 100 µM
SNB-75
  GI50: > 100 µM (inactive)
MOLT-4
  GI50: > 100 µM (inactive)
NCI-H226
  GI50: > 100 µM (inactive)
NCI-H23
  GI50: > 100 µM (inactive)
IGROV-1
  GI50: > 100 µM (inactive)
RXF 393
  GI50: > 100 µM (inactive)
A498
  GI50: > 100 µM (inactive)

## CCN1CCC(O)(c2ccc(C)cc2)C(C(=O)c2ccc(C)cc2)C1 (configuration not stated)
KM12
  GI50: 33.1 µM (inactive)
SK-MEL-5
  GI50: > 42.3 µM (inactive)
HOP-92
  GI50: 19.7 µM (inactive)
SK-MEL-28
  GI50: 23.9 µM (inactive)
OVCAR-8
  GI50: 25.5 µM (inactive)
A549
  GI50: > 75.9 µM (inactive)
Malme-3M
  GI50: 19.5 µM (inactive)
HCT-15
  GI50: 19.6 µM
SNB-75
  GI50: 71.9 µM (inactive)
MOLT-4
  GI50: 29 µM (inactive)
NCI-H226
  GI50: > 100 µM (inactive)
NCI-H23
  GI50: > 40 µM (inactive)
IGROV-1
  GI50: > 42.9 µM (inactive)
HCC 2998
  GI50: 52.4 µM (inactive)
A498
  GI50: > 59.2 µM (inactive)

## NC1=C(NC(=O)Cc2ccccc2F)C(=O)c2ccccc2C1=O
KM12
  GI50: > 100 µM (inactive)
HOP-92
  GI50: 22.3 µM (inactive)
SK-MEL-28
  GI50: > 100 µM (inactive)
OVCAR-8
  GI50: 39.2 µM (inactive)
A549
  GI50: 59.3 µM (inactive)
Malme-3M
  GI50: 13.6 µM (inactive)
HCT-15
  GI50: 24.2 µM
SNB-75
  GI50: 18.8 µM (inactive)
MOLT-4
  GI50: > 100 µM (inactive)
NCI-H226
  GI50: > 100 µM (inactive)
NCI-H23
  GI50: 40.6 µM (inactive)
IGROV-1
  GI50: 38.8 µM (inactive)
HCC 2998
  GI50: > 100 µM (inactive)
RXF 393
  GI50: 34.4 µM (inactive)

## Nc1nc(CCl)nc(Nc2ccccc2)n1
KM12
  GI50: 15.1 µM (inactive)
SK-MEL-5
  GI50: 17.5 µM (inactive)
HOP-92
  GI50: 18.2 µM (inactive)
SK-MEL-28
  GI50: 15.8 µM (inactive)
OVCAR-8
  GI50: 30.2 µM (inactive)
A549
  GI50: 26.2 µM (inactive)
Malme-3M
  GI50: 17.4 µM (inactive)
SNB-75
  GI50: 6.24 µM (inactive)
MOLT-4
  GI50: 15.8 µM (inactive)
NCI-H226
  GI50: 26.2 µM (inactive)
NCI-H23
  GI50: 18.6 µM (inactive)
IGROV-1
  GI50: 16.6 µM (inactive)
HCC 2998
  GI50: 17.4 µM (inactive)

## COc1ccc(NCc2cc(OC)c(OC)c(OC)c2)cc1
KM12
  GI50: 0.13 µM (active)
SK-MEL-5
  GI50: 0.207 µM (active)
HOP-92
  GI50: 2.15 µM (inactive)
SK-MEL-28
  GI50: 0.275 µM (active)
OVCAR-8
  GI50: 0.851 µM (active)
A549
  GI50: 0.578 µM (active)
HCT-15
  GI50: 0.217 µM
MOLT-4
  GI50: 0.451 µM (active)
NCI-H23
  GI50: 0.513 µM (active)
IGROV-1
  GI50: 0.631 µM (active)
HCC 2998
  GI50: 0.277 µM (active)
RXF 393
  GI50: 0.342 µM (active)
A498
  GI50: 0.543 µM (active)

## Cn1c(NC(=O)NC23CC4CC(CC(C4)C2)C3)nc2ccccc21
KM12
  GI50: > 100 µM (inactive)
SK-MEL-5
  GI50: 91 µM (inactive)
HOP-92
  GI50: 25.5 µM (inactive)
SK-MEL-28
  GI50: 96.4 µM (inactive)
OVCAR-8
  GI50: > 100 µM (inactive)
A549
  GI50: > 100 µM (inactive)
Malme-3M
  GI50: 17.5 µM (inactive)
HCT-15
  GI50: > 100 µM
SNB-75
  GI50: 3.94 µM (inactive)
MOLT-4
  GI50: > 100 µM (inactive)
NCI-H226
  GI50: 93.5 µM (inactive)
NCI-H23
  GI50: > 100 µM (inactive)
IGROV-1
  GI50: > 100 µM (inactive)
HCC 2998
  GI50: > 100 µM (inactive)
RXF 393
  GI50: 15.7 µM (inactive)

## O=S(=O)(SCCCCSS(=O)(=O)c1ccc(Cl)cc1)c1ccc(Cl)cc1
KM12
  GI50: 9.68 µM (inactive)
SK-MEL-5
  GI50: 16.7 µM (inactive)
HOP-92
  GI50: 8.51 µM (inactive)
SK-MEL-28
  GI50: 17.8 µM (inactive)
OVCAR-8
  GI50: 12.2 µM (inactive)
A549
  GI50: 13.5 µM (inactive)
Malme-3M
  GI50: 15.4 µM (inactive)
HCT-15
  GI50: 13.4 µM
SNB-75
  GI50: 11.4 µM (inactive)
MOLT-4
  GI50: 2.73 µM (inactive)
NCI-H23
  GI50: 10.3 µM (inactive)
IGROV-1
  GI50: 5.2 µM (inactive)
HCC 2998
  GI50: 18.7 µM (inactive)
RXF 393
  GI50: 16.7 µM (inactive)
A498
  GI50: 16.6 µM (inactive)

## CCNC(=O)c1ccc(C)c(/N=N/N(C)C)c1
KM12
  GI50: > 100 µM (inactive)
SK-MEL-5
  GI50: > 100 µM (inactive)
HOP-92
  GI50: > 100 µM (inactive)
SK-MEL-28
  GI50: > 100 µM (inactive)
OVCAR-8
  GI50: > 100 µM (inactive)
A549
  GI50: > 100 µM (inactive)
HCT-15
  GI50: > 100 µM
NCI-H23
  GI50: > 100 µM (inactive)
IGROV-1
  GI50: > 100 µM (inactive)
HCC 2998
  GI50: > 100 µM (inactive)

## CC(C)CCCC(C)C1CCC2C3CC([N+](=O)[O-])=C4CC(O)CCC4(C)C3CCC12C (configuration not stated)
KM12
  GI50: 16.4 µM (inactive)
SK-MEL-5
  GI50: > 10 µM (inactive)
HOP-92
  GI50: 23.3 µM (inactive)
SK-MEL-28
  GI50: 13.7 µM (inactive)
OVCAR-8
  GI50: 21.7 µM (inactive)
A549
  GI50: 23.2 µM (inactive)
Malme-3M
  GI50: 19.8 µM (inactive)
HCT-15
  GI50: 17.3 µM
SNB-75
  GI50: 17.1 µM (inactive)
MOLT-4
  GI50: 24.2 µM (inactive)
NCI-H23
  GI50: 22.7 µM (inactive)
IGROV-1
  GI50: 23.8 µM (inactive)
HCC 2998
  GI50: 20.2 µM (inactive)
RXF 393
  GI50: 23.6 µM (inactive)
A498
  GI50: 21.8 µM (inactive)
